Experimental data as given in article PMC12036750, “Screening of SIRT6 inhibitors and activators: A novel activator has an impact on breast cancer cells” (Biomedicine & pharmacotherapy = Biomedecine & …, 2021).
Each block holds one molecule with its values, some of them ahead of it.

Experiments:
SIRT6 [1] = biological target: T1, SIRT6 (Homo sapiens, UniProt Q8N6T7); experiment: fluorogenic demyristoylase assay (BPS Bioscience), myristoyl peptide substrate; type: biochemical
Target sequence in this assay (Q8N6T7 2-355): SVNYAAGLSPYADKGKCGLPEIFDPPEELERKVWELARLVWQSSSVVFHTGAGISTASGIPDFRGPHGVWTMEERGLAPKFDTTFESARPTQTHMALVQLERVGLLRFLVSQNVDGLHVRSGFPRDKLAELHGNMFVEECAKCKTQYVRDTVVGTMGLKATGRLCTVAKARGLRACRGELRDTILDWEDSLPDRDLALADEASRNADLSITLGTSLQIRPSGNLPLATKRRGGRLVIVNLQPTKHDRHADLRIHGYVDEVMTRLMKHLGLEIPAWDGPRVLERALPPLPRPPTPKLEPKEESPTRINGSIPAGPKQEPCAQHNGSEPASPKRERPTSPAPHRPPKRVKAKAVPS

SIRT6 [2] = biological target: T1, SIRT6; experiment: HPLC deacetylation assay, single concentration […]; type: biochemical; conditions: read-out: % inhibition at 100 μM
Target sequence in this assay (Q8N6T7 whole entry): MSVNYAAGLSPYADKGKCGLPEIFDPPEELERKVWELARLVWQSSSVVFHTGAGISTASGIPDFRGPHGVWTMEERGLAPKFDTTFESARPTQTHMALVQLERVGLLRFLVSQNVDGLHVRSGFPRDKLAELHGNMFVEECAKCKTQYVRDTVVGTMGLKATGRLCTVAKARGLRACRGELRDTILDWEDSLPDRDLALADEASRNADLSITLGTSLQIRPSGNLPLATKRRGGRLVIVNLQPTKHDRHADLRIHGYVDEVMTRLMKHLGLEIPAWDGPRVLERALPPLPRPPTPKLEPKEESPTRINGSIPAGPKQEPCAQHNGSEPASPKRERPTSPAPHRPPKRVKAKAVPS

SIRT2 = biological target: T2, SIRT2 (Homo sapiens, UniProt Q8IXJ6); experiment: fluorogenic deacetylation assay (BioMol KI179 substrate), single concentration […]; type: biochemical
T2 sequence (Q8IXJ6 2-389): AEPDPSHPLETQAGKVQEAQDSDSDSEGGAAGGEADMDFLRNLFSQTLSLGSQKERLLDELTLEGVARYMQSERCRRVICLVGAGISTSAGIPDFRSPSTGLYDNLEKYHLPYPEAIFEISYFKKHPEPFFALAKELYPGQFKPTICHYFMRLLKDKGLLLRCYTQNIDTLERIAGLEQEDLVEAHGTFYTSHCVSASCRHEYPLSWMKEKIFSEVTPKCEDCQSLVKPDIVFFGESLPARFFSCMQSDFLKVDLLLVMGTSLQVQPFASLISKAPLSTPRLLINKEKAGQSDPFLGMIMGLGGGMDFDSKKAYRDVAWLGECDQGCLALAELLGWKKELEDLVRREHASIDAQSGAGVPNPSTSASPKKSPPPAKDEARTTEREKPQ

SIRT6 [3] = biological target: T1, SIRT6; experiment: HPLC deacetylation assay with H3K9Ac peptide; dose response and steady-state kinetics (activation); type: biochemical
Target sequence in this assay (Q8N6T7 whole entry): as the sequence (Q8N6T7 whole entry) above

[4] = system: T3, NC(=O)c1ccc[n+]([C@@H]2O[C@H](COP(=O)([O-])OP(=O)(O)OC[C@H]3O[C@@H](n4cnc5c(N)ncnc54)[C@H](O)[C@@H]3O)[C@@H](O)[C@H]2O)c1; experiment: steady-state Michaelis-Menten kinetics by HPLC (Km, DMSO control); type: biochemical, Homo sapiens
T3 construct: GST-tagged recombinant SIRT6

Molecule: NC(=O)c1cccnc1 [NAM]
inhibition at 200 µM (SIRT6 [1]): 86 ± 13%

Molecule: O=c1c(O)c(-c2ccc(O)c(O)c2)oc2cc(O)cc(O)c12 [Q, quercetin]
inhibition at 100 µM (SIRT6 [2]): 30%

inhibition at 200 µM (SIRT2): 53 ± 1.3%
EC50 (SIRT6 [3]): 80 ± 12 µM
Molecule: Cc1c(-c2ccccc2)oc2c(CC(=O)OCC(=O)c3ccc(O)cc3O)cccc2c1=O [compound 1, (2,4-dihydroxy-phenyl)–2-oxoethyl 2-(3-methyl-4-oxo-2-phenyl-4H-chromen-8-yl)acetate]

Molecule: SIRT6 (Homo sapiens)
Km [4]: 1190 ± 450 µM
kcat [4]: 0.0022 ± 0.0004 s⁻¹
kcat/Km [4]: 1.9 M⁻¹ s⁻¹
